melting point | Compound
178 to 182 °C | CC(C)C(=O)c1sc(NC(=O)C2CC2)nc1-c1ccco1 [Compound 394, N-[4-(2-Furyl)-5-isobutyrylthiazol-2-yl]cyclopropane carboxamide]
240 to 245 °C | CC(C)(C)C(=O)c1sc(NC(=O)c2ccncc2)nc1-c1ccco1 [Compound 400, N-[4-(2-Furyl)-5-pivaloylthiazol-2-yl]pyridine-4-carboxamide]
133 to 134 °C | CC(C)(C)C(=O)c1sc(NC(=O)C2CC2)nc1-c1ccco1 [Compound 401, N-[4-(2-Furyl)-5-pivaloylthiazol-2-yl]cyclopropanecarboxamide]
174 to 183 °C | COCC(=O)c1sc(NC(=O)c2ccc(Cl)nc2)nc1-c1ccco1 [Compound 404, 2-Chloro-N-[4-(2-furyl)-5-(methoxyacetyl)thiazol-2-yl]pyridine-5-carboxamide]
166 to 167 °C | COCC(=O)c1sc(NC(=O)c2ccc(F)cc2)nc1-c1ccco1 [Compound 405, 4-Fluoro-N-[4-(2-furyl)-5-(methoxyacetyl)thiazol-2-yl]benzamide]
198 to 200 °C | COCC#CC(=O)c1sc(NC(=O)c2ccncc2)nc1-c1ccco1 [Compound 413, N-[4-(2-Furyl)-5-(3-methoxypropa-1-ynylcarbonyl)thiazol-2-yl]pyridine-4-carboxamide]
225 to 230 °C (dec.) | O=C(Nc1nc(-c2ccco2)c(C(=O)C2CC2)s1)c1ccncc1 [Compound 417, N-[5-(Cyclopropylcarbonyl)-4-(2-furyl)thiazol-2-yl]pyridine-4-carboxamide]
150 to 154 °C | COc1ccccc1C(=O)Nc1nc(-c2ccco2)c(C(=O)C2CC2)s1 [Compound 420, N-[5-(Cyclopropylcarbonyl)-4-(2-furyl)thiazol-2-yl]-2-methoxybenzamide]
125 to 160 °C (dec.) | Nc1nc(-c2ccco2)c(C(=O)C2CCC2)s1 [Compound 423, 2-Amino-4-(2-furyl)thiazol-5-yl cyclobutyl ketone]
227 to 235 °C (dec.) | O=C(Nc1nc(-c2ccco2)c(C(=O)C2CCC2)s1)c1ccncc1 [Compound 424, N-[5-(Cyclobutylcarbonyl)-4-(2-furyl)thiazol-2-yl]pyridine-4-carboxamide]
188 to 192 °C | O=C(Nc1nc(-c2ccco2)c(C(=O)C2CCC2)s1)c1ccco1 [Compound 425, N-[5-(Cyclobutylcarbonyl)-4-(2-furyl)thiazol-2-yl]furan-2-carboxamide]
220 to 225 °C | N#Cc1ccc(C(=O)Nc2nc(-c3ccco3)c(C(=O)C3CCC3)s2)cc1 [Compound 426, 4-Cyano-N-[5-(cyclobutylcarbonyl)-4-(2-furyl)thiazol-2-yl]benzamide]
200 to 205 °C | O=C(Nc1nc(-c2ccco2)c(C(=O)C2CCC2)s1)C1CC1 [Compound 427, N-[5-(Cyclobutylcarbonyl)-4-(2-furyl)thiazol-2-yl]cyclopropanecarboxamide]
182 to 187 °C | O=C(Nc1nc(-c2ccco2)c(C(=O)C2CCCC2)s1)C1CC1 [Compound 434, N-[5-(Cyclopentylcarbonyl)-4-(2-furyl)thiazol-2-yl]cyclopropanecarboxamide]
108 to 110 °C | O=C(c1sc(NC(=O)N2CCOCC2)nc1-c1ccco1)C1CCCC1 [Compound 435, N-[5-(Cyclopentylcarbonyl)-4-(2-furyl)thiazol-2-yl]-morpholine-4-carboxamide]
180 to 187 °C | COC1CCC(C(=O)c2sc(NC(=O)c3ccncc3)nc2-c2ccco2)CC1 (stereo not shown) [Compound 442, N-[4-(2-Furyl)-5-(4-methoxycyclohexylcarbonyl)thiazol-2-yl]pyridine-4-carboxamide]
105 to 109 °C | COC1CCC(C(=O)c2sc(NC(=O)c3ccc(C#N)cc3)nc2-c2ccco2)CC1 (stereo not shown) [Compound 443, 4-Cyano-N-[4-(2-furyl)-5-(4-methoxycyclohexylcarbonyl)thiazol-2-yl]benzamide]
206 to 212 °C | O=C1CCC(C(=O)c2sc(NC(=O)c3ccncc3)nc2-c2ccco2)CC1 [Compound 448, N-[4-(2-Furyl)-5-(4-oxocyclohexylcarbonyl)thiazol-2-yl]pyridine-4-carboxamide]

Second part, the compound before the results:

Compound | melting point
Cn1ccc(C(=O)c2sc(NC(=O)c3ccncc3)nc2-c2ccco2)cc1=O [Compound 367, N-[4-(2-Furyl)-5-(1-methyl-2-oxo-1,2-dihydropyridin-4-ylcarbonyl)thiazol-2-yl]pyridine-4-carboxamide] | 243 to 255 °C (dec.)
CCn1ccc(C(=O)c2sc(NC(=O)c3ccncc3)nc2-c2ccco2)cc1=O [Compound 369, N-[5-(1-Ethyl-2-oxo-1,2-dihydropyridin-4-ylcarbonyl)-4-(2-furyl)thiazol-2-yl]pyridine-4-carboxamide] | 277 to 281 °C
O=C(Nc1nc(-c2ccco2)c(C(=O)c2ccn(Cc3ccccc3)c(=O)c2)s1)c1ccncc1 [Compound 371, N-[5-(1-Benzyl-2-oxo-1,2-dihydropyridin-4-ylcarbonyl)-4-(2-furyl)thiazol-2-yl]pyridine-4-carboxamide] | 288 to 291 °C
O=C(Nc1nc(-c2ccco2)c(C(=O)c2cnccn2)s1)c1ccncc1 [Compound 374, N-[4-(2-Furyl)-5-(pyrazin-2-ylcarbonyl)thiazol-2-yl]pyridine-4-carboxamide] | > 300 °C
O=C(Nc1nc(-c2ccco2)c(C(=O)c2ccncn2)s1)c1ccncc1 [Compound 375, N-[4-(2-Furyl)-5-(pyrimidin-4-ylcarbonyl)thiazol-2-yl]pyridine-4-carboxamide] | > 300 °C
O=C(Nc1nc(-c2ccco2)c(C(=O)c2cccnn2)s1)c1ccncc1 [Compound 376, N-[4-(2-Furyl)-5-(pyridazin-3-ylcarbonyl)thiazol-2-yl]pyridine-4-carboxamide] | 280 to 281 °C
CC(=O)c1sc(NC(=O)c2ccncc2)nc1-c1ccco1 [Compound 377, N-[5-Acetyl-4-(2-furyl)thiazol-2-yl]pyridine-4-carboxamide] | 252 to 259 °C (dec.)
O=C(Nc1nc(-c2ccco2)c(C(=O)C(F)(F)F)s1)c1ccncc1 [Compound 380, N-[4-(2-Furyl)-5-(trifluoroacetyl)thiazol-2-yl]pyridine-4-carboxamide] | 268 to 270 °C
CCC(=O)c1sc(NC(=O)c2ccncc2)nc1-c1ccco1 [Compound 381, N-[4-(2-Furyl)-5-propionylthiazol-2-yl]pyridine-4-carboxamide] | 225 to 240 °C (dec.)
CCCC(=O)c1sc(NC(=O)c2ccncc2)nc1-c1ccco1 [Compound 382, N-[5-Butyryl-4-(2-furyl)thiazol-2-yl]pyridine-4-carboxamide] | 191 to 194 °C
CCCC(=O)c1sc(NC(=O)C2CC2)nc1-c1ccco1 [Compound 385, N-[5-Butyryl-4-(2-furyl)thiazol-2-yl]cyclopropanecarboxamide] | 170 to 172 °C
CC(C)C(=O)c1sc(N)nc1-c1ccco1 [Compound 392, 2-Amino-4-(2-furyl)thiazol-5-yl isopropyl ketone] | 195 to 199 °C
CC(C)C(=O)c1sc(NC(=O)c2ccncc2)nc1-c1ccco1 [Compound 393, N-[4-(2-Furyl)-5-isobutyrylthiazol-2-yl]pyridine-4-carboxamide] | 179 to 182 °C

— patent US7718808B2, “Thiazole derivatives” (Kyowa Hakko Kirin Co., Ltd., priority 2003, dated 2010)
